According to patent publication US6699676B1, “Uses of ouabain and ouabain-like molecules in apoptosis related pathologies” (Corporation du Centre de Recherche du Centre, Hospitalier …, priority 1999, dated 2004):

Assays:
VSMC [1] = assay: ATP content in VSMC; conditions: 8 hours incubation with ouabain, data not shown
VSMC [2] = assay: DNA synthesis, serum-induced [3H]-thymidine incorporation in VSMC; type: cell-based, rat
Description: As with ouabain, VSMC apoptosis was blocked by inhibition of the Na^+,K^+ pump in K^+-depleted medium (Table 1). […] DNA synthesis in VSMC, measured as serum-induced [^3H]-thymidine incorporation, was also insensitive to 5 hours preincubation with ouabain and was decreased by ˜60% only after 48 hours of the Na^+, K^+ pump inhibition (data not presented).

Jurkat cells = assay: Intracellular Na+ and K+ content in Jurkat cells; type: cell-based, human; conditions: for Intracellular cations K^+i / Intracellular cations Na^+i: ouabain-treated Jurkat cells, 1 mM, 6 hours
Description: FIG. 1. Kinetics of modulation of intracellular Na^+ (1, 2) and K^+ (3, 4) content by ouabain in VSMC-E1A (1, 3) and Jurkat cells (2, 4). Cells were preincubated for 24 hours in the presence of 10% calf serum in control medium consisting of 91 mM NaCl, 5 mM KCl, 0.9 mM NaH2PO4, 44 mM NaHCO3, 1.8 mM CaCl2, 0.8 mM MgCl2, 33 mM HEPES and 5 mM D-glucose (pH 7.4) with 2 μCi/ml of ^22Na or 0.5 μCi/ml ^86Rb, and 1 mM ouabain was added at the time interval indicated by the arrow. At specific time-points, intracellular Na^+ and K content + was measured as described in Experimental Procedures. Mean values±S.E. obtained in experiments performed in quadruplicate (VSMC-E1A) or triplicate (Jurkat cells) are given.
To estimate chromatin cleavage, cells were incubated for 2 hours in the presence of 10% calf serum in the control solution (DMEM, [Na^+]=137 mM; [K^+]=5 mM—line 1) or under equimolar substitution of NaCl with KCl ([Na^+]=14 mM; [K^+]=128 mM—line 2) with or without 1 mM ouabain and then for an additional 7 hours at the same media with or without 100 ng/ml Fas ligand (Fas-L). Intracellular Na^+ and K^+ content was measured as steady-state distribution of isotopes after 24 hours preincubation of cells in control Na^+-enriched solution containing 0.5 μCi/ml ^86Rb or 2 μCi/ml ^22Na, and an additional 6 hours incubation in Na^+—(line 1) or K^+—(line 2) enriched medium containing 10% calf serum, isotopes with the same specific activity with or without 1 mM ouabain. For more details see Experimental Procedures. Mean values±S.E. obtained in experiments performed in triplicate are given. ★, #p<0.01 and 0.001 compared to ouabain-untreated cells.
Intracellular Na^+ and K^+ content. The intracellular content of exchangeable Na^+ and K^+ was measured as steady-state distribution of extra- and intracellular ^22Na and ^86Rb, as described previously in detail (22). Briefly, to establish the steady-state distribution of isotopes, VSMC growing in 12× (^22Na) or 24× (^86Rb) well plates or ˜10^6 Jurkat cells in suspension were preincubated for 24 hours in DMEM containing 10% calf serum and 0.5 μCi/ml ^86RbCl or 2 μCi/ml ^22NaCl and then treated in media with compositions shown in FIG. 1 and Tables 3 and 4 and with the same specific radioactivity. At the end of incubation, the VSMC were transferred on ice, washed 4 times with 2 ml of ice-cold medium W, containing 100 mM MgCl2 and 10 mM HEPES-tris buffer (pH 7.4), and lysed with SDS/EDTA mixture. One ml of Jurkat cell suspension was applied on a Whatman type C filter with the cells being washed with 3×5 ml aliquots of ice-cold medium W under negative pressure of 20-30 mm Hg. Radioactivity of the incubation medium and cell lysate was measured with a liquid scintillation analyzer and intracellular cation content was determined as A/am, where A was the radioactivity of the samples (cpm), a was the specific radioactivity of Na^+ and K^+(^86Rb) in the medium (cpm/nmol), and m was the protein content determined by Lowry methods.

C[C@@H]1O[C@@H](O[C@H]2C[C@@H](O)[C@]3(CO)[C@H]4[C@H](O)C[C@]5(C)[C@@H](C6=CC(=O)OC6)CC[C@]5(O)[C@@H]4CC[C@]3(O)C2)[C@H](O)[C@H](O)[C@H]1O [Ouabain, 1β,3β,5,11α,14,19-hexahydroxycard 20 [22]-enolide 3-[6-deoxy-α-L-mannopyrano-sidel]]
ATP content (VSMC [1]): did not observe any significant effect
DNA synthesis, serum-induced [^3H]-thymidine incorporation (VSMC [2]; 5 hours preincubation with ouabain): insensitive
decrease of DNA synthesis, serum-induced [^3H]-thymidine incorporation (VSMC [2]; after 48 hours of Na+,K+ pump inhibition with ouabain): ~60%
increase of the content of intracellular Na^+ (Jurkat cells; ouabain treated Jurkat lymphocytes, 1 mM (FIG. 1, curve 2)): 10 fold
Intracellular cations K^+i (Jurkat cells; medium [Na+]o=14, [K+]o=128 mM): 498 nmol/mg protein
Intracellular cations Na^+i (Jurkat cells; medium [Na+]o=14, [K+]o=128 mM): 204 nmol/mg protein
Intracellular cations K^+i (Jurkat cells; medium [Na+]o=137, [K+]o=5 mM): 107 nmol/mg protein
Intracellular cations Na^+i (Jurkat cells; medium [Na+]o=137, [K+]o=5 mM): 1137 nmol/mg protein
